In patent publication US20080090805A1, “CB-1 MODULATING COMPOUNDS AND THEIR USE” (ACADIA PHARMACEUTICALS INC., priority 2005, published 2008):

Experiments:
CB1 (wild-type) = CB1 (wild-type) (Homo sapiens, UniProt P21554); assay: R-SAT functional receptor assay, CB1 (wild-type); type: cell-based; conditions: for IC50: Table 1, inhibition of constitutive receptor response; for Emax: Table 1, relative to the ligand SR141716 (100%), read-out: % Inhibition
CB1 (mutant) = CB1 (mutant) (Homo sapiens, UniProt P21554); assay: R-SAT functional receptor assay, CB1 (mutant, truncated after amino acid 417); type: cell-based; conditions: Table 1, CB1 (mutant); for IC50: inhibition of constitutive receptor response, read-out: pIC50 (converted); for % Inhibition: relative to the ligand SR141716 (100%)
CB1 (mutant), sequence (P21554 1-417, change not shown): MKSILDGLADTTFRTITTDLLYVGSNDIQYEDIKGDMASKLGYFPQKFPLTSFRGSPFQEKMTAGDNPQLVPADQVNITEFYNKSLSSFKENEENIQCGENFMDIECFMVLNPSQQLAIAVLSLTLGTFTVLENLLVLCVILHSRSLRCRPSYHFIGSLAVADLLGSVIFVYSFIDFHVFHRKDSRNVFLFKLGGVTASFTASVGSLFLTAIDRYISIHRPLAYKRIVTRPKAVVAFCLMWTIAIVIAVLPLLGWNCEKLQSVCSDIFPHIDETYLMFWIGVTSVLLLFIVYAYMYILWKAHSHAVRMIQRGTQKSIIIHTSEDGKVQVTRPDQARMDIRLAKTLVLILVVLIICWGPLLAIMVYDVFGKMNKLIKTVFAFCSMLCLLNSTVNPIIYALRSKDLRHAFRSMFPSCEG

native CB1 receptors = native CB1 receptors (Rattus norvegicus, UniProt P20272); assay: CB1 receptor rat binding assay ([3H]SR141716A, rat brain membranes); conditions: rat brain membranes; 3 nM [3H]SR141716A; read-out: Rat Brain pKi (converted)
native CB1 receptors, sequence (P20272 whole entry): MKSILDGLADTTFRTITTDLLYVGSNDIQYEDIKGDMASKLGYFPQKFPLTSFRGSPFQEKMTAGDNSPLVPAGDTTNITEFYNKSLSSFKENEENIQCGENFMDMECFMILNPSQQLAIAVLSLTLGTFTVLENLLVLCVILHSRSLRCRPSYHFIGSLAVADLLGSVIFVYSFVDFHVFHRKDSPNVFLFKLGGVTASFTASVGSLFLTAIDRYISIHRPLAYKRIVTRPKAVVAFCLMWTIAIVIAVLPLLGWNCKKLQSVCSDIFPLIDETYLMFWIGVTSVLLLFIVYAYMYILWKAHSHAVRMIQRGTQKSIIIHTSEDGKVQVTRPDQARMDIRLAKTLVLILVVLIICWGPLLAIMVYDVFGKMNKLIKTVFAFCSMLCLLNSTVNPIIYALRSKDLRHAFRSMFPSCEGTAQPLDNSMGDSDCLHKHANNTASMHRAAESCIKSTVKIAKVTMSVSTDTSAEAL

[1] = test system: fasted Sprague-Dawley rats; assay: Acute feeding study; type: in vivo; conditions: Table 3 feeding data
Description: Male, Sprague-Dawley rats (90-120 g) served as subjects for these studies. Rats were fasted for a period of 16 hrs (water was always available). After the fasting period, test compounds were administered either intraperitoneally (ip) or orally (po). Immediately following compound administration, the rats were returned to their home cage. Following 30 min after compound administration, the rats were removed from their home cages and placed individually into clean cages with a pre-measured amount of food. Food weights were obtained (to the nearest 0.1 g) at various time points. Food consumption was monitored for a period of up to 2 hrs (i.e., 2.5 hr after test compound administration).

in vitro [2] = conditions: human, microsomes, pH 7.4
in vitro [3] = conditions: rat, microsomes, pH 7.4
in vitro [4] = conditions: mouse, microsomes, pH 7.4

CB1 (wild-type), sequence (P21554 whole entry, the tested form may be a part): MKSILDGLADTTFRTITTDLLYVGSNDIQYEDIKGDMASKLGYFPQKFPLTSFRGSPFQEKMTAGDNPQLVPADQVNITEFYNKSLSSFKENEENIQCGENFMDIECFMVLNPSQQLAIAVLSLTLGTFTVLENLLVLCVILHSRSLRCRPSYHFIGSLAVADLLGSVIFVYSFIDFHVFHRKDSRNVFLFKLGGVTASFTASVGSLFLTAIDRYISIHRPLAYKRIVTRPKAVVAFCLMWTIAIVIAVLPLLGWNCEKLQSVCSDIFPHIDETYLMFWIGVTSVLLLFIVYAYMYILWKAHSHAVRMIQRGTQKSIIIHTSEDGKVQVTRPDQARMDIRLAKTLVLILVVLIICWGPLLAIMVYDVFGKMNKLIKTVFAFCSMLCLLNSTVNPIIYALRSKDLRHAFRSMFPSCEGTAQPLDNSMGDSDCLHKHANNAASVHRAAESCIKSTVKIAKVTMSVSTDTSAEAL

Structure (SMILES) | Feeding ID50 [1] [mg/kg] | microsomal CLint at 1 μM (in vitro [2]) [µL/min/mg] | microsomal CLint at 1 μM (in vitro [3]) [µL/min/mg] | further results
CC(C)CNC(=O)c1ccc2c(c1)N=C(c1ccc(Cl)s1)c1ccccc1S2 [Example 11, 11-(5-Chlorothiophen-2-yl)-dibenzo[b,f][1,4]thiazepine-8-carboxylic acid isobutylamide] | – | – | – | IC50 (CB1 (wild-type)): 15.8 nM; Emax (CB1 (wild-type)): 84%; IC50 (CB1 (mutant)): 126 nM; % Inhibition (CB1 (mutant)): 95%; Ki (native CB1 receptors): 10 nM
CCOC(=O)N1CCC(NC(=O)c2ccc3c(c2)N=C(Cl)c2ccccc2S3)CC1 [Example 14, 4-[(11-chloro-dibenzo[b,f][1,4]thiazepine-8-carbonyl)-amino]-piperidine-1-carboxylic acid ethyl ester] | – | – | – | IC50 (CB1 (wild-type)): 126 nM; Emax (CB1 (wild-type)): 88%; IC50 (CB1 (mutant)): 316 nM; % Inhibition (CB1 (mutant)): 94%
Cc1ccc(N2CCN(C(=O)c3ccc4c(c3)N=C(C3CCCCC3)c3ccccc3S4)CC2)c(C)c1 [Example 18, (11-Cyclohexyl-dibenzo[b,f][1,4]thiazepin-8-yl)-[4-(2,4-dimethyl-phenyl)-piperazin-1-yl]methanone] | – | – | – | IC50 (CB1 (wild-type)): 39.8 nM; Emax (CB1 (wild-type)): 99%; IC50 (CB1 (mutant)): 200 nM; % Inhibition (CB1 (mutant)): 99%
CCCCNC(=O)c1ccc2c(c1)N=C(c1ccc(Cl)cc1)c1ccccc1S2 [drawing 536] | 2.4 | – | – | –
O=C(NN1CCCCC1)c1ccc2c(c1)N=C(C1CCCCC1)c1ccccc1S2 [drawing 537] | 12 | – | – | –
CC(C)CCNC(=O)c1ccc2c(c1)N=C(c1cccc(Cl)c1)c1ccccc1S2 [drawing 538] | 5.3 | – | – | –
O=C(NCc1ccc(F)cc1)c1ccc2c(c1)N=C(c1ccc(Cl)cc1)c1ccccc1S2 [drawing 539] | 8 | – | – | –
CC(C)CNC(=O)c1ccc2c(c1)N=C(c1ccc(Cl)c(Cl)c1)c1ccccc1S2 [drawing 540] | 8.4 | – | – | –
O=C(NCc1cccnc1)c1ccc2c(c1)N=C(c1ccc(Cl)c(Cl)c1)c1ccccc1S2 [drawing 541] | 14 | – | – | –
CC(C)CNC(=O)c1ccc2c(c1)N=C(c1ccc(Cl)cc1F)c1ccccc1S2 [drawing 542] | 5.8 | – | – | –
O=C(NN1CCCCC1)c1ccc2c(c1)N=C(c1ccc(Cl)cc1)c1ccccc1S2 [drawing 543] | 2.4 | – | – | –
CC(C)CNC(=O)c1ccc2c(c1)N=C(c1ccc(Cl)s1)c1ccccc1S2 [drawing 544] | 7.9 | – | – | –
CCCCNC(=O)c1ccc2c(c1)N=C(c1ccc(F)cn1)c1ccccc1S2 [drawing 545] | 6 | – | – | –
O=C(NN1CCCCC1)c1ccc2c(c1)N=C(c1ccc(Cl)s1)c1ccccc1S2 [drawing 1660] | – | 32 | 148 | microsomal CLint at 1 μM (in vitro [4]): 227 µL/min/mg
O=C(NCc1ccc(F)cc1)c1ccc2c(c1)N=C(c1cccc(Cl)c1)c1ccccc1S2 [drawing 1662] | – | 27 | 76 | –
COc1cccc(C2=Nc3cc(C(=O)NC4CCC(F)(F)CC4)ccc3Sc3ccccc32)n1 [drawing 1673] | – | 25 | 158 | –
O=C(NCCCc1ccccc1)c1ccc2c(c1)N=C(c1ccc(Cl)cc1)c1ccccc1S2 [drawing 1680] | – | 73 | 131 | –
O=C(NN1CCCCC1)c1ccc2c(c1)N=C(c1ccc(F)cc1)c1ccccc1S2 [drawing 1685] | – | 61 | 96 | –
O=C(NN1CCCCCC1)c1ccc2c(c1)N=C(c1cccc(F)c1)c1ccccc1S2 [drawing 1693] | – | 84 | 241 | microsomal CLint at 1 μM (in vitro [4]): 160 µL/min/mg
CC(C)CCNC(=O)c1ccc2c(c1)N=C(c1cccc(F)c1)c1ccccc1S2 [drawing 1713] | – | 46 | 163 | microsomal CLint at 1 μM (in vitro [4]): 202 µL/min/mg
O=C(NC1CCC(F)(F)CC1)c1ccc2c(c1)N=C(c1cccc(Cl)c1)c1ccccc1S2 [drawing 1715] | – | 3 | 81 | –
C[C@@H]1CCC[C@H](C)N1NC(=O)c1ccc2c(c1)N=C(c1cccc(Cl)c1)c1ccccc1S2 [drawing 1720] | – | 390 | 254 | microsomal CLint at 1 μM (in vitro [4]): 684 µL/min/mg
CCN(CCNC(=O)c1ccc2c(c1)N=C(c1cccc(Cl)c1)c1ccccc1S2)c1ccccc1 [drawing 1751] | – | 157 | 368 | –
O=C(NCc1ccco1)c1ccc2c(c1)N=C(c1cccc(F)c1)c1ccccc1S2 [drawing 1754] | – | 68 | 140 | microsomal CLint at 1 μM (in vitro [4]): 197 µL/min/mg
CC(C)CNC(=O)c1ccc2c(c1)N=C(c1ccc(Cl)cc1)c1ccccc1S2 [drawing 1759] | – | 12 | 56 | microsomal CLint at 1 μM (in vitro [4]): 83 µL/min/mg
O=C(NCCc1ccccc1)c1ccc2c(c1)N=C(c1cccc(Cl)c1)c1ccccc1S2 [drawing 1763] | – | 53 | 110 | –
